This is an account of results in patent US20240417684A1, “DIFFERENTIATION AND USE OF HUMAN MICROGLIA-LIKE CELLS FROM PLURIPOTENT STEM CELLS AND HEMATOPOIETIC PROGENITORS” (THE REGENTS OF THE UNIVERSITY OF CALIFORNIA, priority 2017, published 2024).

For assay [1], the target named is T1, P2ry12 (Homo sapiens, UniProt Q9H244).
T1 construct: iMGLs express the microglial-enriched purinergic receptor P2ry12; endogenous in cells; host or cells: iMGLs (human iPSC-derived microglia-like cells)
Description: ADP calcium imaging (Fura-2-AM, I340/I380). In kind it is cell-based. To be noted: 50 μM, 1 hour; ADP 10 μM. Here is the method:
For calcium imaging, iMGLs were plated on poly-L-lysine-coated coverslips and 1 hour later were incubated with Fura-2-AM (Molecular Probes) calcium dye diluted in Ringer solution containing (in mM): NaCl 140, KCl 4.5, CaCl2 2, MgCl2 1, HEPES 10, glucose 10, sucrose 5, pH=7.4. After a 1-hour incubation, the dye was washed out 3 times using Ringer solution and treated for 1 hour with either P2RY12 inhibitor PSB0739 (50 μM, Tocris) or Vehicle (DMSO) and used for experiments. Baseline Ca^2+ signal (I340/I380) were measured for more than 100 s and then ADP (10 μM) was introduced under stead flow after baseline measurement. Ca^2+ recordings were performed on Zeiss (Axiovert 35)-based imaging setup and data acquisition was conducted with Metafluor software (Molecular Devices). Data analysis was performed using Metafluor, Origin Pro, and Prism 6.0.

Assay [2] deals with T1, P2ry12. Description: ADP trans-well migration assay. The format is cell-based. To be noted: pre-exposure 50 μM, 1 hr; ADP 100 μM. Here is the method:
Trans-well migration assays to ADP was performed as previously described (De Simone et al., 2010; Moore et al., 2015). iMGLs (5.5×10^4 cells/well) were cultured in serum-free basal media without cytokines for 1hour. Next, iMGLS were pre-exposed to DMSO or PSB0739 (50 μM, Tocris) for 1 hr at 37° C. in 5% CO2 cell culture incubator. Cells were then washed three times with basal medium and plated in trans-well migration chambers (5 μm polycarbonate inserts in 24 wells; Corning) containing […] (ADP, 100 μM; Sigma) in the bottom chamber in 37° C. in 5% CO2. After 4 hours, cells were washed three times and fixed in PFA (4%) for 15 minutes at room temperature. Cells were stained with Hoechst stain for 10 mins to visualize nuclei of cells. A blinded observer counted total cells per slide and then scrubbed cells off top surface, washed with PBS, and recounted to record migrated cells. Migration was reported as migrated over total cells per well. Fluorescent images of cells were captured using Olympus IX71 inverted microscope. […] […]

In assay [3] the test system is iMGLs. Description: Mesoscale multiplex cytokine and chemokine assay of iMGL conditioned media. To be noted: for CCL2 secretion, mean ± SE / CCL3 secretion, mean ± SE / CCL4 secretion, mean ± SE / CCL17 secretion, mean ± SE / CXCL10 secretion, mean ± SE / IL1A secretion, mean ± SE / IL6 secretion, mean ± SE / IL8 secretion, mean ± SE / IL10 secretion, mean ± SE / TNFA secretion, mean ± SE: iMGLs stimulated 24 h, IFNγ 20 ng/ml, IL-1β 20 ng/ml or LPS 100 ng/ml; for TNFA secretion, mean ± SE: n=3 wells/group; for cytokines/chemokines secreted by iMGLs in response to the stimulus: of the 10 examined cytokines, 24 h. The format is cell-based, human. The method, then:
iMGLs culture media was replaced with basal media for 2 hours prior to stimulation with IFNγ (20 ng/ml), IL1β (20 ng/ml), and LPS (100 ng/ml) for 24 hours, after which cells were collected for RNA and conditioned media assessed for cytokine secretion. To simultaneously assess multiple cytokine and chemokine analytes from iMGL conditioned media, conditioned media from each treatment group was processed and analyzed using the V-PLEX human cytokine 30-plex kit (Mesoscale) according to the manufacturer protocol.

For assay [4], the system named is iMGLs. Description: RNA-seq differential gene expression of iMGLs with or without TGFβ. In kind it is cell-based, human. The method, then: Cells were harvested and washed three times with DPBS and stored in RNAlater, RNA preservation solution. RNA was extracted from all cell types using RNeasy Mini Kit (Qiagen) following manufacturer's guidelines. RNA integrity (RIN) was measured for all samples using the Bioanalzyer Agilent 2100 series. All sequencing libraries analyzed were generated from RNA samples measuring a RIN score≥9. The Illumina TruSeq mRNA stranded protocol was used to obtain poly-A mRNA from all samples. 200 ng of isolated mRNA was used to construct RNA-seq libraries. Libraries were quantified and normalized using the Library Quantification Kit from Kapa Biosystems and sequenced as paired-end 100 bp reads on the Illumina HiSeq 2500 platform.
RNA-seq reads were mapped to the hg38 reference genome using STAR aligner and mapped to Gencode version 24 gene annotations using RSEM. Genes with expression (<1 FPKM) across all samples were filtered from all subsequent analysis. Differential gene expression analysis was performed on TMM normalized counts with EdgeR (Robinson et al., 2010). Multiple biological replicates were used for all comparative analysis. A p-value≤0.001 and a 2-fold change in expression were used in determining significant differentially expressed genes for respective comparisons. PCA analysis was performed using the R package rgl and plotted using plot3d. […]

“Also recorded” adds a separate entry of the source.

T1 sequence (Q9H244 whole entry): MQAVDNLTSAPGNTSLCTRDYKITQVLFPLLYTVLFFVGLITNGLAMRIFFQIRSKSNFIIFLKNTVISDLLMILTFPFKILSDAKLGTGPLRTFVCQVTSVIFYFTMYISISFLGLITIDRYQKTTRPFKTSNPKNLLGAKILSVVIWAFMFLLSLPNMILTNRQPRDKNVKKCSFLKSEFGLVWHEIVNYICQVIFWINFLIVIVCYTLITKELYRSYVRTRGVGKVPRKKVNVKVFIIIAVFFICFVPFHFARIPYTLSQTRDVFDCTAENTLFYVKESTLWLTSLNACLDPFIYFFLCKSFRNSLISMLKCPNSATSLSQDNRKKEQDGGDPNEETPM

As to `Nc1c(S(=O)(=O)O)cc(Nc2ccc(Nc3ccccc3)c(S(=O)(=O)O)c2)c2c1C(=O)c1ccccc1C2=O` [PSB0739], the “effect on ADP-induced calcium flux in iMGLs” value at P2ry12 [1] is reported as “negated”. Also, on P2ry12 [2], the “effect on ADP-induced iMGL migration” value is given as “negated; also recorded: completely abrogates ADP-induced iMGL migration”.

Consider “IFNγ: cytokine used to stimulate iMGLs (20 ng/ml)”, for which, in the assay with iMGLs [3], the “CCL2 secretion, mean ± SE” value is reported as 993.26 ± 55.76; the “CCL3 secretion, mean ± SE” value was 295.39 ± 19.72; the “CCL4 secretion, mean ± SE” value was 4,514.72 ± 10.01^; the “CCL17 secretion, mean ± SE” value was found to be 25.82 ± 1.98. Further, in the assay with iMGLs [3], the “CXCL10 secretion, mean ± SE” value is listed as 0.00 ± 0.00; the “IL1A secretion, mean ± SE” value was 1.48 ± 0.25; the “IL6 secretion, mean ± SE” value is given as 12.22 ± 1.44; the “IL8 secretion, mean ± SE” value came out at 3549.05 ± 181.22. Moreover, in the assay with iMGLs [3], the “IL10 secretion, mean ± SE” value stood at 4.59 ± 2.35; the “TNFA secretion, mean ± SE” value came out at 58.82 ± 8.80; the “cytokines/chemokines secreted by iMGLs in response to the stimulus” value (from here on “cytokines/chemokines secreted by iMGLs”) stood at 8.

As to “IL-1β: cytokine used to stimulate iMGLs (20 ng/ml)”, in the assay on iMGLs [3], the “CCL2 secretion, mean ± SE” value is 275.98 ± 19.54; the “CCL3 secretion, mean ± SE” value amounted to 556.24 ± 54.01; the “CCL4 secretion, mean ± SE” value is listed as 4,492.26 ± 51.35^; the “CCL17 secretion, mean ± SE” value turned out to be 21.75 ± 1.94. In the assay on iMGLs [3], the “CXCL10 secretion, mean ± SE” value came to 69.49 ± 4.73; the “IL1A secretion, mean ± SE” value is reported as 4.89 ± 1.45; the “IL6 secretion, mean ± SE” value worked out at 13.92 ± 0.41; the “IL8 secretion, mean ± SE” value is on record as 3,004.54 ± 47.58^. Besides, in the assay with iMGLs [3], the “IL10 secretion, mean ± SE” value amounted to 4.42 ± 1.33; the “TNFA secretion, mean ± SE” value worked out at 29.74 ± 0.65; the “cytokines/chemokines secreted by iMGLs” value is given as 8.

As to Lipopolysaccharide [LPS], in the assay on iMGLs [3], the “CCL2 secretion, mean ± SE” value is 5,695.46 ± 275.72; the “CCL3 secretion, mean ± SE” value was 0.00 ± 0.00; the “CCL4 secretion, mean ± SE” value is recorded as 4,594.57 ± 33.96^; the “CCL17 secretion, mean ± SE” value was 92.96 ± 7.70. Further, in the assay on iMGLs [3], the “CXCL10 secretion, mean ± SE” value turned out to be 73.72 ± 4.53; the “IL1A secretion, mean ± SE” value came to 30.55 ± 2.19; the “IL6 secretion, mean ± SE” value stood at 274.39 ± 15.25; the “IL8 secretion, mean ± SE” value was 4,347.96 ± 75.61^. In the assay on iMGLs [3], the “IL10 secretion, mean ± SE” value was 31.31 ± 1.52; the “TNFA secretion, mean ± SE” value is listed as 116.49 ± 9.77; the “cytokines/chemokines secreted by iMGLs” value is given as “induction of all measured cytokines except for CCL3”.

“TGFβ: glia-derived cytokine in iMGL differentiation media (50 ng/ml)”: the “genes differentially expressed in iMGLs after TGFβ removal” value in the assay with iMGLs [4] (TGFβ removal (24 hours)) amounted to 1517 genes. The “genes differentially expressed (increased) in iMGLs with TGFβ” value with iMGLs [4] (presence of TGFβ) came to 1262 genes.
